According to patent US6846825B1, “Antibacterial agents” (British Biotech Pharmaceuticals Limited, priority 1999, dated 2005):
In brackets after ≈: the same amount, converted by molar mass. Where two headings read alike, the source gives them in different places.

Tests used:
Type in all cases: cell-based
E. coli strains DH5α = assay: Minimal inhibitory concentration (MIC), two fold serial dilutions in 2×YT broth; conditions: 37° C., 18 hours, lowest concentration that inhibited visible growth
Method: (§1) Minimal inhibitory concentrations (MIC) of compounds of the invention against E. coli strains DH5α (Genotype; F-ω80dlacZΔM15Δ(lacZYA-argF)U169 deoR recA1 endA1 hsdR17(rk^−,mk^+)phoA supE44λ^−thi-1 gyrA96 relA1) obtained from Gibco BRL Life Technologies, or Staphylococcus capitis (American Type Culture Collection number 35661) were determined as follows. Stock solutions of each test compound were prepared by dissolution of the compound in dimethylsulfoxide at 10 mM. For the determination of the minimal inhibitory concentration, two fold serial dilutions were prepared in 2×YT broth (typtone 16 g/1, yeast extract 10 g/1, sodium chloride 5 g/1 obtained from BIO 101 Inc, 1070 Joshua Way, Vista, Calif. 92083, USA) to yield 0.05 ml compound-containing medium per well. Inoculate were prepared from cultures grown overnight in 2×YT broth at 37° C. Cell densities were adjusted to absorbance at 660 nm (A660)=0.1; the optical density-standardised preparations were diluted 1:1000 in 2×YT broth; and each well inoculated with 0.05 ml of the diluted bacteria. Microtiter plates were incubated at 37° C. for 18 hours in a humidified incubator. The MIC (μM) was recorded as the lowest drug concentration that inhibited visible growth.

[1] = test system: Staphylococcus capitis (American Type Culture Collection number 35661); assay: as above; conditions: S. capitis ATCC 35661, 2×YT broth, 37° C., 18 hours, lowest concentration that inhibited visible growth
Method: as §1

Moraxella catarrhalis = assay: MIC against respiratory tract pathogens, Microdilution Broth Method (NCCLS)
Method: (§2) In another experiment, the MICs of the compound of Example 91 were determined against certain respiratory tract pathogens, using the Microdilution Broth Method according to the approved standard of the National Committee for Clinical Laboratory Standards procedure (Methods for dilution antimicrobial susceptibility tests for bacteria that grow aerobically—Fourth Edition ISBN 1-56238-309-4).

Haemophilus Influenza = assay: as above
Method: as §2

Streptococcus pneumoniae = assay: as above
Method: as §2

[2] = Staphylococcus capitis, ATCC35661

SMILES	MIC (E. coli strains DH5α)	MIC (E. coli strains DH5α; Escherichia coli)	MIC [1, 2]	MIC [1]	further results
CC(C)(C)[C@H](NC(=O)[C@H](CC1CCCC1)CN(O)C=O)C(=O)N1CCN(Cc2ccc3ccccc3c2)CC1 [Example 54, 2R-Cyclopentylmethyl-N-[2,2-dimethyl-1S-(4-naphthalen-2-ylmethyl-piperazine-1-carbonyl)-propyl]-3-(formyl-hydroxy-amino)-propionamid]	200 µM (≈ 107 µg/mL)	–	–	3.1 µM (≈ 1.66 µg/mL)	–
CCCC[C@H](CN(O)C=O)C(=O)N[C@H](C(=O)N1CCN(C(=O)c2snnc2C)CC1)C(C)(C)C [Example 69, 2R-[(Formyl-hydroxy-amino)-methyl]-hexanoic acid {2,2-dimethyl-1S-[4-(4-methyl-[1,2,3]thiadiazole-5-carbonyl)-piperazine-1-carbonyl]-propyl}-amide]	200 µM (≈ 99.3 µg/mL)	–	–	25 µM (≈ 12.4 µg/mL)	–
CCCC[C@H](CN(O)C=O)C(=O)N[C@H](C(=O)N1CCN(C(=O)c2ccc3c(c2)OCO3)CC1)C(C)(C)C [Example 55, 2R-[(Formyl-hydroxy-amino)-methyl]-hexanoic acid {1S-[4-(3a,7a-dihydro-benzo[1,3]dioxole-5-carbonyl)-piperazine-1-carbonyl]-2,2-dimethyl-propyl}-amide]	–	200 µM (≈ 104 µg/mL)	6.2 µM (≈ 3.22 µg/mL)	–	–
CCCC[C@H](CN(O)C=O)C(=O)N[C@H](C(=O)N1CCN(C(=O)c2sc(C)nc2C)CC1)C(C)(C)C [Example 74, 2R-[(Formyl-hydroxy-amino)-methyl]-hexanoic acid {1S-[4-(2,4-dimethyl-thiazole-5-carbonyl)-piperazine-1-carbonyl]-2,2-dimethyl-propyl}-amide]	200 µM (≈ 102 µg/mL)	–	–	25 µM (≈ 12.7 µg/mL)	–
CC(C)(C)[C@H](NC(=O)[C@H](CC1CCCC1)CN(O)C=O)C(=O)N1CCN(Cc2ccc3c(c2)OCO3)CC1 [Example 57, N-[1S-(4-Benzo[1,3]dioxol-5-ylmethyl-piperazine-1-carbonyl)-2,2-dimethyl-propyl]-2R-cyclopentylmethyl-3-(formyl-hydroxy-amino)-propionamide]	–	100 µM (≈ 53.1 µg/mL)	6.2 µM (≈ 3.29 µg/mL)	–	–
CCCC[C@H](CN(O)C=O)C(=O)N[C@H](C(=O)N1CCN(S(=O)(=O)c2ccc(-c3ccccc3)cc2)CC1)C(C)(C)C [Example 78, 2R-[(Formyl-hydroxy-amino)-methyl]-hexanoic acid {1S-[4-(biphenyl-4-sulfonyl)-piperazine-1-carbonyl]-2,2-dimethyl-propyl}-amide]	–	–	–	200 µM (≈ 117 µg/mL)	–
CCCC[C@H](CN(O)C=O)C(=O)N[C@H](C(=O)N1CCN(C(=O)c2ccc(-c3ccccc3)cc2)CC1)C(C)(C)C [Example 79, 2R-[(Formyl-hydroxy-amino)-methyl]-hexanoic acid {1S-[4-(biphenyl-4-carbonyl)-piperazine-1-carbonyl]-2,2-dimethyl-propyl}-amide]	–	–	–	6.25 µM (≈ 3.44 µg/mL)	–
CC(C)(C)[C@H](NC(=O)[C@H](CC1CCCC1)CN(O)C=O)C(=O)N1CCN(Cc2ccc(-c3ccccc3)cc2)CC1 [Example 52, N-[1S-(4-Biphenyl-4-ylmethyl-piperazine-1-carbonyl)-2,2-dimethyl-propyl]-2R-cyclopentylmethyl-3-(formyl-hydroxy-amino)-propionamide]	200 µM (≈ 113 µg/mL)	–	–	6.2 µM (≈ 3.49 µg/mL)	–
CCCC[C@H](CN(O)C=O)C(=O)N[C@H](C(=O)N1CCN(Cc2cccnc2)CC1)C(C)(C)C [Example 56, 2R-[(Formyl-hydroxy-amino)methyl]-hexanoic acid [2,2-dimethyl-1S-(4-pyridin-3-ylmethyl-piperazine-1-carbonyl)-propyl]-amide]	–	50 µM (≈ 23.1 µg/mL)	25 µM (≈ 11.5 µg/mL)	–	–
CC(C)(C)C(NC(=O)[C@H](CC1CCCC1)CN(O)C=O)C(=O)N1CCC(Oc2ccc(C(=O)N3CCC(O)CC3)cc2)CC1 (stereo partly drawn) [Example 91, 2R-Cyclopentylmethyl-3-(formyl-hydroxy-amino)-N-(1S-{4-[4-(4-hydroxy-piperidine-1-carbonyl)-phenoxy]-piperidine-1-carbonyl}-2,2-dimethyl-propyl)-propionamide]	–	200 µM (≈ 123 µg/mL)	25 µM (≈ 15.4 µg/mL)	–	MIC (Moraxella catarrhalis; Moraxella catarrhalis 2412): 0.5 mg/L (≈ 0.813 µM); MIC (Moraxella catarrhalis; Moraxella catarrhalis 2413): 0.25 mg/L (≈ 0.407 µM); MIC (Haemophilus Influenza; Haemophilus Influenza 1390): 1 mg/L (≈ 1.63 µM); MIC (Haemophilus Influenza; Haemophilus Influenza 1414): 4 mg/L (≈ 6.51 µM); MIC (Streptococcus pneumoniae; Streptococcus pneumoniae (PIP) 2391): 0.25 mg/L (≈ 0.407 µM); MIC (Streptococcus pneumoniae; Streptococcus pneumoniae (PRP) 2390): 0.25 mg/L (≈ 0.407 µM); MIC (Streptococcus pneumoniae; Streptococcus pneumoniae (PSP) 2403, read-out: MIC): 0.25 mg/L (≈ 0.407 µM)
CCCC[C@H](CN(O)C=O)C(=O)N1CCC(c2ccccc2)CC1 [Example 24, N-Hydroxy-N-[2R-(4-phenyl-piperidine-1-carbonyl)-hexyl]-formamide]	–	–	100 µM (≈ 33.2 µg/mL)	–	–

More lines, main results first:

MIC (E. coli strains DH5α)	MIC (E. coli strains DH5α; Escherichia coli)	MIC [1, 2]	SMILES	MIC [1]	further results
–	200 µM (≈ 120 µg/mL)	25 µM (≈ 15 µg/mL)	CC(C)(C)C(NC(=O)[C@H](CC1CCCC1)CN(O)C=O)C(=O)N1CCC(Oc2ccc(C(=O)N3CCOCC3)cc2)CC1 (stereo partly drawn) [Example 89, 2R-Cyclopentylmethyl-N-(2,2-dimethyl-1S-{4-{4-(morpholine-4-carbonyl)-phenoxy}-piperidine-1-carbonyl}-propyl)-3-(formyl-hydroxy-amino)-propionamide]	–	–
200 µM (≈ 97.1 µg/mL)	–	–	CCCC[C@H](CN(O)C=O)C(=O)N[C@H](C(=O)N1CCN(Cc2ccccc2C#N)CC1)C(C)(C)C [Example 44, 2R-[(Formyl-hydroxy-amino)-methyl]-hexanoic acid {1S-[4-(2-cyano-benzyl)-piperazine-1-carbonyl]-2,2-dimethyl-propyl}-amide]	12 µM (≈ 5.83 µg/mL)	–
200 µM (≈ 102 µg/mL)	–	–	CC(C)(C)[C@H](NC(=O)[C@H](CC1CCCC1)CN(O)C=O)C(=O)N1CCN(Cc2ccccc2C#N)CC1 [Example 50, N-{1S-[4-(2-Cyano-benzyl)-piperazine-1-carbonyl]-2,2-dimethyl-propyl}-2R-cyclopentylmethyl-3-(formyl-hydroxy-amino)-propionamide]	6.2 µM (≈ 3.17 µg/mL)	–
–	100 µM (≈ 34.5 µg/mL)	–	CCCC[C@H](CN(O)C=O)C(=O)N1CCN(CCOCCO)CC1 [Example 29, N-Hydroxy-N-(2R-{4-[2-(2-hydroxy-ethoxy)-ethyl]-piperazine-1-carbonyl}-hexyl)-formamide]	–	–
–	100 µM (≈ 55.9 µg/mL)	6.2 µM (≈ 3.46 µg/mL)	CN(C)C(=O)c1ccc(OC2CCN(C(=O)[C@@H](NC(=O)[C@H](CC3CCCC3)CN(O)C=O)C(C)(C)C)CC2)cc1 [Example 88, 4-(1S-{2-[2R-Cyclopentylmethyl-3-(formyl-hydroxy-amino)-propionylamino]-3,3-dimethyl-butyryl}-piperidin-4-yloxy)-N,N-dimethyl-benzamide]	–	–
